Patent US4738954A, “Novel N^6 -substituted-5'-oxidized adenosine analogs” (Warner-Lambert Company, priority 1985, dated 1988)
pIC50: −log10 of the molar value.

Key:
mouse locomotor activity = test: Mouse Activity and Screen Test Procedure (MAST): locomotor activity; assay type: in vivo, Swiss-Webster male mice; settings: mice, one hour
Description: The compounds of the invention are new chemical substances which are useful as pharmaceutical agents for the treatment of psychoses. The antipsychotic activity of representative compounds of the invention was established by the Mouse Activity and Screen Test Procedure (MAST) described below.
Nine unfasted Swiss-Webster male mice weighing 20-30 g are equally divided into three groups for each drug dose to be tested. That is, data for each dose level was generated by three separate groups of three mice each.
A minimum of three dose levels (10, 30, and 100 mg/kg) are tested for each drug. Treatments are administered intraperitoneally one hour prior to testing. All dosages are calculated as parent compound and given in volumes of 10 ml/kg. Compounds are dissolved or suspended in 0.2% Methocel. Control animals are injected with Methocel.
A two part testing procedure is started one hour postinjection. First, the screen test (ST) is performed (see Pharmac. Biochem. Behav. 6, 351-353, 1977). Briefly this test consists of placing mice on individual wire screens which are then rotated 180 degrees at the start of a 60 second observation period. The number of mice falling off the inverted screen is recorded.
Immediately following the screen test, the final phase of testing is initiated by placing each group of three mice in one actophotometer (Life Sciences, 22, 1067-1076, 1978). The actophotometer consists of a cylindrical chamber whose center is occupied by another cylinder which contains the illumination for six photocells located on the perimeter of the chamber. Six light-beam interruptions equal one count. Locomotor activity is recorded by computer at ten minute intervals for 60 minutes.
The data obtained from the screen test are expressed as percent of mice falling off the screen. Data derived from locomotor activity of drug treated mice are compared to the activity of vehicle treated animals and are expressed as percent inhibition of spontaneous locomotion. All percentages reported for inhibition of locomotion (LI) are based upon data accumulated for one hour. Both phases of testing are graded: A=60-100%; C=31-59%; and N=0-30%. An overall dose rating is obtained by the following criteria:
LAD refers to the lowest dose at which an A rating is achieved. […] Utilizing this procedure, an overall dose rating of A was obtained for the noted compound at the indicated dose. The compounds are identified in the Examples.

adenosine A2 receptor = molecular target: T1, adenosine A2 receptor (Rattus norvegicus, UniProt P30543); test: Adenosine Receptor Binding--A2 Receptor Affinity (RBA2), [3H]NECA displacement; assay type: rat (Sprague-Dawley striatal membranes); settings: 4 nM [3H]NECA + 50 nM N6-cyclopentyladenosine, rat striatum, 25° C, 60 min; read-out: RBA-2 (IC50, A2 receptor affinity)
T1 construct: Brains were thawed and then kept on ice while the striata were dissected out; tissue Pel-Freez (Rogers, Arkansas) (rat brains); host or cells: rat striatum, membranes
Protocol: Adenosine Receptor Binding--A2 Receptor Affinity (RBA2)
Brains from 200-500 g mixed sex Sprague-Dawley rats were purchased from Pel-Freez (Rogers, Arkansas). Fresh brains from male Long-Evans hooded rats (Blue Spruce Farms, Altamont, NY) gave essentially identical results. Brains were thawed and then kept on ice while the striata were dissected out. Striata were disrupted in 10 vol of ice-cold 50 mM Tris.HCl (pH 7.7 at 25° C., pH 8.26 at 5° C.) (Tris) for 30 seconds in a Polytron PT-10 (Brinkmann) at setting 5. The suspension was centrifuged at 50,000×g for ten minutes, the supernatant discarded, the pellet resuspended in 10 vol ice-cold Tris as above, recentrifuged, resuspended at 1 g/5 ml, and stored in plastic vials at -70° C. (stable for at least six months). When needed, tissue was thawed at room temperature, disrupted in a Polytron, and kept on ice until used.
All incubations were for 60 minutes at 25° C. in 12×75 mm glass tubes containing 1 ml Tris with 5 mg original tissue weight of rat weight of rat striatal membranes, 4 nM [^3 H]-N-ethyl adenosine-5'-carboxamide ([^3 H]NECA), 50 nM N^6 -cyclopentyladenosine (to eliminate A1 receptor binding), 10 mM MgCl2, 0.1 units/ml of adenosine deaminase and 1% dimethylsulfoxide. N^6 -Cyclopentyladenosine was dissolved at 10 mM in 0.02N HCl and diluted in Tris. Stock solutions and dilutions of N^6 -cyclopentyladenosine could be stored at -20° C. for several months. Test compounds were dissolved at 10 mM in dimethylsulfoxide on the same day as the experiment, and diluted in dimethylsulfoxide to 100× the final incubation concentration. Control incubations received an equal volume (10 μl) of dimethylsulfoxide; the resulting concentration of dimethylsulfoxide had no effect on binding. [^3 H]NECA was diluted to 40 nM in Tris. The membrane suspension (5 mg/0.79 ml) contained sufficient MgCl2 and adenosine deaminase to give 10 mM and 0.1 units/ml, respectively, final concentration in the incubation. […] After all additions, the rack of tubes was vortexed, and the tubes were then incubated for 60 min at 25° C. in a shaking water bath. The rack of tubes was vortexed an additional time halfway through the incubation.
Incubations were terminated by filtration through 2.4 cm GF/B filters under reduced pressure. Each tube was filtered as follows: the contents of the tube were poured on the filter, 4 ml of ice-cold Tris were added to the tube and the contents poured onto the filter, and the filter was washed twice with 4 ml of ice-cold Tris. The filtration was complete in about twelve seconds. Filters were put in scintillation vials, 8 ml of Formula 947 scintillation fluid added, and the vials left overnight, shaken, and counted in a liquid scintillation counter at 40% efficiency.
Nonspecific binding was defined as binding in the presence of 100 μM N^6 -cyclopentyladenosine, and specific binding was defined as total binding minus nonspecific binding. The IC50 was calculated by weighted nonlinear least squares curve-fitting to the mass-action equation. [formula] where Y is cpm bound
T is cpm total binding without drug
S is cpm specific binding without drug
D is the concentration of drug and
K is the IC50 of the drug
Weighting factors were calculated under the assumption that the standard deviation was proportional to the predicted value of Y. Nonspecific binding was treated as a very large (infinite) concentration of drug in the computer analysis.

T1 sequence (P30543 whole entry): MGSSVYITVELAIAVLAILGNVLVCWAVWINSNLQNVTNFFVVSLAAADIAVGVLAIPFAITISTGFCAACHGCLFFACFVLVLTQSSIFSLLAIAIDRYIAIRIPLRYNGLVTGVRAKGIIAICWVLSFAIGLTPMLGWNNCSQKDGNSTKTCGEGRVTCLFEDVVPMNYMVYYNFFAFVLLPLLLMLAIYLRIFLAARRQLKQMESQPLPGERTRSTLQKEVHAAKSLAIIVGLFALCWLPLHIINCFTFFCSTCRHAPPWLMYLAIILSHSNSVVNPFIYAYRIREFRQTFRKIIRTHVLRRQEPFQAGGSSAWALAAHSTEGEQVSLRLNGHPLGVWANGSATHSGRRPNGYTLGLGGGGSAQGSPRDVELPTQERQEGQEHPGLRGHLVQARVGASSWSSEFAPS

CCNC(=O)[C@H]1O[C@@H](n2cnc3c(NCC(c4ccccc4)c4ccccc4)ncnc32)[C@H](O)[C@@H]1O [Example 3, N^6-(2,2-diphenylethyl)-adenosine-5'-ethylcarboxamide]
Inhibition of mouse locomotor activity (mouse locomotor activity; 0.1 mg/kg IP): 20%
Inhibition of mouse locomotor activity (mouse locomotor activity; 0.3 mg/kg IP): 1%
Inhibition of mouse locomotor activity (mouse locomotor activity; 1 mg/kg IP): 72%
Inhibition of mouse locomotor activity (mouse locomotor activity; 3 mg/kg IP): 92%
Inhibition of mouse locomotor activity (mouse locomotor activity; 10 mg/kg IP): 90%
Inhibition of mouse locomotor activity (mouse locomotor activity; 30 mg/kg IP): 93%
pIC50 (adenosine A2 receptor): 7.60

CCNC(=O)[C@H]1O[C@@H](n2cnc3c(NCc4cccc5ccccc45)ncnc32)[C@H](O)[C@@H]1O [Example 6, N-6-Naphthylmethyladenosine-5'-ethylcarboxamide]
Inhibition of mouse locomotor activity (mouse locomotor activity; 0.03 mg/kg IP): 21%
Inhibition of mouse locomotor activity (mouse locomotor activity; 0.1 mg/kg IP): 30%
Inhibition of mouse locomotor activity (mouse locomotor activity; 0.3 mg/kg IP): 82%
Inhibition of mouse locomotor activity (mouse locomotor activity; 1 mg/kg IP): 87%
Inhibition of mouse locomotor activity (mouse locomotor activity; 3 mg/kg IP): 88%
Inhibition of mouse locomotor activity (mouse locomotor activity; 10 mg/kg IP): 90%
pIC50 (adenosine A2 receptor): 8.10

CCOC(=O)[C@H]1O[C@@H](n2cnc3c(NC4CC5CCC4C5)ncnc32)[C@H](O)[C@@H]1O (relative stereo) [Example 8, N-6-Norbornyl-adenosine-5'ethylcarboxylate]
pIC50 (adenosine A2 receptor): 4.91

CCOC(=O)[C@H]1O[C@@H](n2cnc3c(NCC(c4ccccc4)c4ccccc4)ncnc32)[C@H](O)[C@@H]1O [Example 5, N6-(2,2-diphenylethyl)-5-adenosine-5'-ethylcarboxylate]
Inhibition of mouse locomotor activity (mouse locomotor activity; 3 mg/kg IP): -4%
Inhibition of mouse locomotor activity (mouse locomotor activity; 10 mg/kg IP): 0%
Inhibition of mouse locomotor activity (mouse locomotor activity; 30 mg/kg IP): 2%
pIC50 (adenosine A2 receptor): 6.33

CCNC(=O)[C@H]1O[C@@H](n2cnc3c(N[C@H](C)Cc4ccccc4)ncnc32)[C@H](O)[C@@H]1O [Example 1, (R)-N-6-[(2-phenyl-1-methyl)ethyl]-adenosine-5'-ethylcarboxamide]
Inhibition of mouse locomotor activity (mouse locomotor activity; 0.01 mg/kg IP): -8%
Inhibition of mouse locomotor activity (mouse locomotor activity; 0.03 mg/kg IP): 18%
Inhibition of mouse locomotor activity (mouse locomotor activity; 0.1 mg/kg IP): 91%
Inhibition of mouse locomotor activity (mouse locomotor activity; 0.3 mg/kg IP): 75%
Inhibition of mouse locomotor activity (mouse locomotor activity; 1 mg/kg IP): 92%
Inhibition of mouse locomotor activity (mouse locomotor activity; 3 mg/kg IP): 99%
Inhibition of mouse locomotor activity (mouse locomotor activity; 10 mg/kg IP): 99%
Inhibition of mouse locomotor activity (mouse locomotor activity; 30 mg/kg IP): 99%
pIC50 (adenosine A2 receptor): 7.15
